Source: patent US20030036111A1, “Mitochondrial protein” (priority 2001, published 2003)
pKi: −log10 of the molar value. “Also recorded” adds a separate entry of the source.

Columns and labels:
Type in all cases: biochemical
[1] = molecular target: T1, human DNC (mitochondrial deoxynucleotide carrier) (Homo sapiens, UniProt Q9HC21); experiment: Inhibition of [α-35S]dATP uptake (dATP/ADP exchange) by external substrates and carrier inhibitors; details: for pKi: read-out: Ki, competitive inhibition of [α-35 S]dATP uptake by external substrate; for Ki, competitive inhibition of [α-35 S]dATP uptake by external substrate: internal ADP or dADP 10 mM
T1 construct: Amino acids are numbered from 1-320; made in house; host or cells: E. coli BL21(DE3), pET21b; inclusion bodies solubilized in sarkosyl, Ni-NTA purified
T1 sequence (Q9HC21 2-320 limits assumed): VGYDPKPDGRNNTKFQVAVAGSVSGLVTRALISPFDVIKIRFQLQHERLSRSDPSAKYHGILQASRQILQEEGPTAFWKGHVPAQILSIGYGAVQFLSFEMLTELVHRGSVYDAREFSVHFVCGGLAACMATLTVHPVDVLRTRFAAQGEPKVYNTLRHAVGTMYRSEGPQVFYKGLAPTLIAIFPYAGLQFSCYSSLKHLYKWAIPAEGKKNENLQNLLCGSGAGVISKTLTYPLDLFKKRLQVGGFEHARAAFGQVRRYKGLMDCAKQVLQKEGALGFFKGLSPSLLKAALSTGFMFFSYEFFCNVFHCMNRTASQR

[2] = molecular target: T1, human DNC (mitochondrial deoxynucleotide carrier); experiment: Dependence of DNC activity ([α-35S]dATP uptake) on internal substrate; details: internal substrate 10 mM; for rate of [α-35 S]dATP uptake into proteoliposomes with internal substrate: 2 min
Method: FIG. 3. Time course of dATP/ADP exchange and substrate specificity of human DNC. (a) Time course of [α-35 S]dATP/ADP exchange in proteoliposomes reconstituted with the recombinant DNC. [α-35 S]dATP (1 mM) was added to proteoliposomes containing 10 mM ADP (⋄) or 10 mM NaCl (∇). (b) Dependence of DNC activity on internal substrate. Proteoliposomes were preloaded internally with various substrates (concentration 10 mM). Trans-port was started by addition of […] [α-35 S]dATP and stopped after 2 min. The values are means 6 SD of at least three experiments. (c) Inhibition of the rate of [α-35 S]dATP uptake by external substrates. Proteoliposomes were preloaded internally with 10 mM ADP. […] External substrates (concentration 0.5 mM) were added together with [α-35 S]dATP. The extents of inhibition (%) from a representative experiment are reported.
(§1) The recombinant protein in sarkosyl was reconstituted into liposomes in the presence of substrates (10). […] Transport was measured at 25° C. with internal and external pHs at 6.8. It was started by adding [α-35S]dATP or [^14C]-ADP and terminated after 2 min by addition of 100 mM of p-chloromercuribenzene sulfonate (10). Entrapped radioactivity was counted (10). The initial transport rate was calculated from the radioactivity taken up by proteoliposomes within 2 min (in the initial linear range). Other transport activities were assayed similarly (10).

[3] = molecular target: T1, human DNC (mitochondrial deoxynucleotide carrier); experiment: Homo-exchange of other carrier substrates in DNC proteoliposomes; details: internal concentration 10 mM; external concentration 1 mM
Method: as §1

[4] = molecular target: T1, human DNC (mitochondrial deoxynucleotide carrier); experiment: Inhibition of [α-35S]dATP uptake (dATP/ADP exchange) by external substrates and carrier inhibitors; details: external substrates 0.5 mM; internal 10 mM ADP; 125 mM [α-35 S]dATP; 2 min
Method: FIG. 3. Time course of dATP/ADP exchange and substrate specificity of human DNC. (a) Time course of [α-35 S]dATP/ADP exchange in proteoliposomes reconstituted with the recombinant DNC. [α-35 S]dATP (1 mM) was added to proteoliposomes containing 10 mM ADP (⋄) or 10 mM NaCl (∇). (b) Dependence of DNC activity on internal substrate. Proteoliposomes were preloaded internally with various substrates (concentration 10 mM). Trans-port was started by addition of […] [α-35 S]dATP and stopped after 2 min. The values are means 6 SD of at least three experiments. (c) Inhibition of the rate of [α-35 S]dATP uptake by external substrates. Proteoliposomes were preloaded internally with 10 mM ADP. Transport was started by adding […] [α-35 S]dATP and stopped after 2 min. External substrates (concentration 0.5 mM) were added together with [α-35 S]dATP. The extents of inhibition (%) from a representative experiment are reported.
The recombinant protein in sarkosyl was reconstituted into liposomes in the presence of substrates (10). Both cardiolipin (1.14 mg/ml) and EDTA (1 mM) were added. Transport was measured at 25° C. with internal and external pHs at 6.8. It was started by adding [α-35S]dATP or [^14C]-ADP and terminated after 2 min by addition of 100 mM of p-chloromercuribenzene sulfonate (10). Entrapped radioactivity was counted (10). The initial transport rate was calculated from the radioactivity taken up by proteoliposomes within 2 min (in the initial linear range). Other transport activities were assayed similarly (10).

[5] = inhibitor 2 mM, internal 10 mM ADP, 2 min
[6] = inhibitor 10 mM, internal 10 mM ADP, 2 min
[7] = inhibitor 0.1 mM, internal 10 mM ADP, 2 min

Compound | rate of [α-35 S]dATP uptake into proteoliposomes with internal substrate [2] | effect of external substrate on [α-35 S]dATP/ADP exchange [4] | further results
Nc1ccn([C@H]2CC[C@@H](COP(=O)(O)OP(=O)(O)OP(=O)(O)O)O2)c(=O)n1 [ddCTP] |  |  | pKi [1]: 4.15
O=c1ccn([C@@H]2O[C@H](COP(=O)(O)OP(=O)(O)O)[C@@H](O)[C@H]2O)c(=O)[nH]1 [UDP] | significant activities |  | 
O=C(O)CC(O)(CC(=O)O)C(=O)O [citrate] | virtually no activity |  | 
O=C(O)/C=C/C(=O)O [fumarate] |  |  | homo-exchange catalysed by reconstituted DNC [3]: did not catalyse
CCCCC(C(=O)O)C(=O)O [butylmalonate] |  |  | inhibition of uptake of [α-35 S]dATP [1, 5]: No significant inhibition
Nc1ncnc2nc[nH]c12 [adenine] | virtually no activity | no effect | 
Nc1ncnc2c1ncn2[C@@H]1O[C@H](COP(=O)(O)OP(=O)(O)OP(=O)(O)O)[C@@H](O)[C@H]1O [ATP] | lower rate |  | 
c1ccc(-c2ccnc3c2ccc2c(-c4ccccc4)ccnc23)cc1 [bathophenathroline] |  |  | inhibition of uptake of [α-35 S]dATP [1, 6]: 41%
O=c1cc[nH]c(=O)[nH]1 [uracil] | virtually no activity | no effect | 
dADP | highest rates |  | 
O=S(=O)([O-])c1cc[c]([Hg][Cl])cc1 [p-chloromercuribenzene sulfonate] |  |  | inhibition of uptake of [α-35 S]dATP [1, 7]: completely
phosphate | virtually no activity |  | 
Nc1ccn([C@@H]2O[C@H](CO)[C@@H](O)[C@H]2O)c(=O)n1 [cytidine] | virtually no activity | no effect | 
Nc1nc2c(ncn2[C@@H]2O[C@H](COP(=O)(O)OP(=O)(O)O)[C@@H](O)[C@H]2O)c(=O)[nH]1 [GDP] | significant activities; also recorded: rather poorly |  | 
Nc1cc[nH]c(=O)n1 [cytosine] | virtually no activity | no effect | 
Nc1ncnc2c1ncn2[C@@H]1O[C@H](CO)[C@@H](O)[C@H]1O [adenosine] | virtually no activity | no effect | 
Nc1nc2nc[nH]c2c(=O)[nH]1 [guanine] | virtually no activity | no effect | 
O=c1ccn([C@H]2C[C@H](O)[C@@H](COP(=O)(O)OP(=O)(O)O)O2)c(=O)[nH]1 [dUDP] |  |  | Ki, competitive inhibition of [α-35 S]dATP uptake by external substrate [1]: higher
C=C1[C@@H]2CC[C@H]3[C@]4(C)C[C@H](O[C@@H]5O[C@H](CO)[C@@H](OS(=O)(=O)O)[C@H](OS(=O)(=O)O)[C@H]5OC(=O)CC(C)C)CC(C(=O)O)(C(=O)O)[C@H]4CC[C@]3(C2)[C@H]1O [carboxyatractyloside] |  |  | inhibition of uptake of [α-35 S]dATP [1, 7]: 42%
Nc1ccn([C@H]2C[C@H](O)[C@@H](CO)O2)c(=O)n1 [deoxycytidine] | virtually no activity | no effect | 

Compound | rate of [α-35 S]dATP uptake into proteoliposomes with internal substrate [2] | effect of external substrate on [α-35 S]dATP/ADP exchange [4] | further results
C=C1[C@@H](C)[C@H]2[C@H](Cc3ccccc3)NC(=O)[C@]23OC(=O)/C=C/[C@H](O)CCC[C@@H](C)C/C=C/[C@H]3[C@@H]1O [cytochalasin B] |  |  | inhibition of uptake of [α-35 S]dATP ([1]; inhibitor 0.033 mM, internal 10 mM ADP, 2 min): No significant inhibition
O=c1ccn([C@H]2C[C@H](O)[C@@H](CO)O2)c(=O)[nH]1 [deoxyuridine] | virtually no activity | no effect | 
O=P(O)(O)OP(=O)(O)O [pyrophosphate] | much lower activities |  | exchange relative to ADP exchange ([2]; [α-35 S]dATP uptake): 22%
O=c1ccn([C@H]2C[C@H](O)[C@@H](COP(=O)(O)OP(=O)(O)OP(=O)(O)O)O2)c(=O)[nH]1 [dUTP] |  |  | Ki, competitive inhibition of [α-35 S]dATP uptake by external substrate [1]: higher
CO[C@H](C/C=C\C=C\CC/C=C/C[C@H](C)/C=C/C(=C\C(=O)O)CC(=O)O)/C(C)=C\C=C(/C)C(=O)O [bongkrekate] |  |  | inhibition of uptake of [α-35 S]dATP ([1]; inhibitor 0.01 mM, internal 10 mM ADP, 2 min): 37%
O=c1ccn([C@@H]2O[C@H](CO)[C@@H](O)[C@H]2O)c(=O)[nH]1 [uridine] | virtually no activity | no effect | 
Nc1ncnc2c1ncn2[C@H]1CC[C@@H](COP(=O)(O)OP(=O)(O)OP(=O)(O)O)O1 [ddATP] |  |  | pKi [1]: 4.60
Nc1ncnc2c1ncn2[C@H]1C[C@H](O)[C@@H](CO)O1 [deoxyadenosine] | virtually no activity | no effect | 
CCN1C(=O)C=CC1=O [N-ethylmaleimide] |  |  | inhibition of uptake of [α-35 S]dATP [1, 5]: No significant inhibition
Nc1nc2c(ncn2[C@H]2C[C@H](O)[C@@H](CO)O2)c(=O)[nH]1 [deoxyguanosine] | virtually no activity | no effect | 
NCC(=O)O [glycine] | virtually no activity |  | 
Nc1nc2c(ncn2[C@@H]2O[C@H](CO)[C@@H](O)[C@H]2O)c(=O)[nH]1 [guanosine] | virtually no activity | no effect | 
Cc1ncc(COP(=O)(O)O)c(C=O)c1O [pyridoxal 5′-phosphate] |  |  | inhibition of uptake of [α-35 S]dATP [1, 6]: completely
Cc1cn([C@H]2C[C@H](O)[C@@H](CO)O2)c(=O)[nH]c1=O [deoxythymidine] | virtually no activity | no effect | 
Cc1c[nH]c(=O)[nH]c1=O [thymine] | virtually no activity | no effect | 
O=C(O)CC(C(=O)O)c1ccccc1 (stereo not shown) [phenylsuccinate] |  |  | inhibition of uptake of [α-35 S]dATP [1, 5]: No significant inhibition
Nc1ccn([C@@H]2O[C@H](COP(=O)(O)OP(=O)(O)O)[C@@H](O)[C@H]2O)c(=O)n1 [CDP] | significant activities |  | 
NC(=O)C1=CN([C@@H]2O[C@H](COP(=O)(O)OP(=O)(O)OC[C@H]3O[C@@H](n4cnc5c(N)ncnc54)[C@H](O)[C@@H]3O)[C@@H](O)[C@H]2O)C=CC1 [NADH] | virtually no activity |  | 
N#CC(=Cc1ccc(O)cc1)C(=O)O [a-cyano-4-hydroxycinnamate] |  |  | inhibition of uptake of [α-35 S]dATP [1, 5]: No significant inhibition
O=C(O)c1cccc(C(=O)O)c1C(=O)O [1,2,3-benzenetricarboxylate] |  |  | dATP/ADP exchange rate reduced to (remaining rate) [1, 5]: 40%
